According to patent US20030119748A1 (Idun Pharmaceuticals, Inc., priority 1996, published 2003):

Target: T1, mICE (Mus musculus, UniProt P29452)
T1 sequence (P29452 119-402): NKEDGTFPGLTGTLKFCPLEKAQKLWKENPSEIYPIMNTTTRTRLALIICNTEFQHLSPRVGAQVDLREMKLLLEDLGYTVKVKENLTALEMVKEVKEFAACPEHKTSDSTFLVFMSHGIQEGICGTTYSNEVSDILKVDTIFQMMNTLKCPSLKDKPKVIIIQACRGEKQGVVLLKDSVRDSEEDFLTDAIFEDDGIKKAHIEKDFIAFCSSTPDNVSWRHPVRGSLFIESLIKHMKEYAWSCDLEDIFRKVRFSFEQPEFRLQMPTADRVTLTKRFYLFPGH
Test: Dissociation constant Ki for irreversible inhibitors, continuous assay (Example 1B)
Assay type: biochemical
Conditions: compounds of Formula B and Formula C, procedure of Example 1B
From the text: B. Determination of the Dissociation Constant K1 and Irreversible Rate Constant k3 for Irreversible Inhibitors
For the irreversible inhibition of a ICE/ced-3 Family Protease enzyme with a competitive irreversible inhibitor; using the model represented by the following formulas: [drawing 4]
The product formation at time t may be expressed as: [drawing 5]
where E, I, EI, and E-I denote the active enzyme, inhibitor, non-covalent enzyme-inhibitor complex and covalent enzyme-inhibitor adduct, respectively. The K1 value is the overall dissociation constant of reversible binding steps, and k3 is the irreversible rate constant. The [S] and Ks values are the substrate concentration and the dissociation constant of the substrate bound to the enzyme, respectively. [E]^T is the total enzyme concentration.
The above equations were used to determine the K1 and k3 values of a given inhibitor bound to a ICE/ced-3 family protease. Thus, a continuous assay was run for sixty minutes at various concentrations of the inhibitor and the substrate. The assay was formulated essentially the same as described in Example 1A above, except that the reaction was initiated by adding the enzyme to the substrate-inhibitor mixture. The K1 and k3 values were obtained by simulating the product AMC formation as a function of time according to Equation 1. The reference compound for this assay was Cbz-ValAlaAsp-CH2F.

Structure (SMILES): CC(C)[C@H](NC(=O)c1cc2ccccc2n1CC(=O)O)C(=O)NC(CC(=O)O)C(=O)CF (some centres unmarked) [Example 58, N-[(1-(Carboxymethyl)Indole-2-Carbonyl)Valinyl]-3-Amino-4-Oxo-5-Fluoropentanoic Acid]
- Ki: < 1000 nM

Structure (SMILES): Cc1c(C(=O)NC(C(=O)NC(CC(=O)O)C(=O)COc2ccccc2C(N)=O)C(C)C)n(C)c2ccccc12 (centres unmarked) [Example 74, N-(1,3-Dimethyl-indole-2-carbonyl)-Valinyl-3-amino-5-(2-aminocarbonyl-1-phenyl)oxy-4-oxo-pentanoic Acid]
- Ki: < 1000 nM
